According to patent publication US8618074B2, “GPCR enhanced neuroprotection to treat brain injury” (Board of Regents of the University of Texas System, priority 2007, dated 2013):

Experiments:
[1] = test system: Neurons in the absence of astrocytes; assay: Neuronal survival under t-buOOH in the absence of astrocytes (transwells removed before ligand treatment); type: cell-based, mouse
Method: (§1) Primary cultures of astrocytes were prepared as previously published (Lin et al., 2005). C57BL/6 male mice were purchased from the National Institute of Aging and maintained in standard accredited housing conditions at the University of Texas Health Science Center Animal Facility. Animal protocols were approved by our Institutional Animal Care Use Committee. Astrocytes were cultured in DMEM F-12 media (Invitrogen, # 11039-021) supplemented with 2 mM glutamine, nonessential amino acids, 10% fetal calf serum, 100 U/ml penicillin/streptomycin (Cambrex BioScience Walkersville, #17-602E) and 1% fungizone (Invitrogen, #15290-018) at 37° C. in an atmosphere containing 5% CO2. The culture medium was changed every 3-5 days. Confluent cells were gently removed by a trypsin EDTA solution and re-plated on 35 mm glass bottom chambers (Bioptechs #04200415C) prior to imaging experiments 3-4 days later. Cells were maintained in plastic culture flasks until the final re-seeding of cells onto a glass bottom chamber and were passed up to 3 times for astrocyte only experiments. For co-culture experiments with neurons, primary astrocytes were plated directly onto corning transwell-clear permeable supports, which physically separates the two cell-types by ˜1 mm (# 07-200-170, Fisher scientific). Astrocytes were cultured in transwells until they were ˜70% confluent. Mouse cortical neurons (Cambrex Bio Science Walkersville Inc., # M-CX-300) were then cultured onto 6 well mat-tek glass bottom plates and maintained in Neurobasal Medium (Invitrogen, # 21103-049), 2 mM L-Glutamine (Cambrex BioScience Walkersville, #17-605E), 100 U/ml penicillin/streptomycin (Cambrex BioScience Walkersville, #17-602E) and B-27 with (Invitrogen, #17504-044) and without antioxidants (Invitrogen, #10889-038), which controls glia contamination to less than 0.5%. The transwell supports with cultured astrocytes were placed in the neuron seeded glass bottom chambers for four days before imaging and both cell types were then maintained in neuronal media. For neuron only experiments, the astrocytes on the transwell supports were removed prior to treatments and imaging.
(§2) Sensitivity of neurons to oxidative stress was assessed by treating cultures with 100 μM tert-butyl hydrogen peroxide (t-BuOOH, Sigma, #B-2633) for 3 hours. Neurons were then stained with Hoechst 33342 (10 μg/ml, Molecular Probes, #H-3570) to label all cell nuclei and calcein AM (2 μM, #C3100, Molecular Probes, #C3100). […] Calcein fluorescence is only observed in live cells that have maintained their plasma membrane integrity. Images were acquired on an inverted Nikon TE300 microscope with a Hamamatsu ORCAER camera and Open lab software (Improvision).
Activation of neuronal P2X receptors has been reported neurotoxic. Consequently, we further examined the affects of P2Y-R activation on neuronal survival in the absence of astrocytes. Neurons were co-cultured with astrocytes in transwell dishes that were removed from the cultures just prior to treating the neurons with purinergic ligands. Neurons in the absence of astrocytes were then exposed to t-buOOH (100 μM, 4.5 hours with normal B-27, 3 hours with antioxidant-free B-27) and cell viability was assessed by the ability of neurons to retain calcien. […] The same results were found for neurons initially co-cultured with old astrocytes. […]

Mouse cortical neurons = assay: Neuronal survival in transwell co-culture with astrocytes under t-buOOH oxidative stress (Hoechst/calcein); type: cell-based
Method: as §1, §2
To determine whether P2Y-R enhanced mitochondrial metabolism in astrocytes affected neuronal resistance to oxidative stress, we prepared co-cultures of neurons and astrocytes using corning transwell-clear permeable supports, which physically separates the two cell-types by ˜1 mm (# 07-200-170, Fisher scientific). Primary cultures of astrocytes were directly prepared in transwell supports until they were ˜70% confluent. Mouse cortical neurons were then cultured onto glass bottom mattek plates and maintained in B-27/Neurobasal Medium to control glia contamination to less than 0.5% (Invitrogen). After four days, co-cultures were treated with t-buOOH (100 μM) for 4 hours with and without pre-stimulation of ATP (2 μM, 10 minutes). Cells were then stained with the DNA intercalating dye Hoechst 33342 (10 μg/ml, Molecular Probes, #H-3570) and calcein AM (2 μM, Molecular Probes, #C3100). […] We then tested the neuroprotective affects of isoform specific purinergic ligands 2-MeSADP(P2Y1-R) and UTP(P2Y2-R). FIG. 6A depicts histogram plots of the percentage of neurons alive when cocultured with young or old astrocytes. FIG. 6B depicts histogram plots of the percentage of neurons alive pretreated with either 2-MeSADP (2 μM) or UTP (50 μM) for 10 min. […]

astrocytes = assay: Time until mitochondrial membrane potential (ΔΨ, TMRE) collapse during t-BuOOH oxidative stress; type: cell-based, mouse; details: for time until ΔΨ collapse: oligomycin 1 μg/ml 30 min pretreatment, t-buOOH 100 μM; for mean time until ΔΨ collapse: oligomycin pretreatment + extracellular ATP 10 minutes, then oxidative stress
Method: as §1
Mitochondrial membrane potentials (ΔΨs) was measured as previously described using the potential sensitive dye tetra-methyl rhodamine ethyl ester (TMRE, Molecular Probes, #T-669) (Lin and Lechleiter, 2002). Images were acquired with a 60× oil 1.4 NA objective on a Nikon PCM2000 confocal microscope custom adapted for two-photon imaging. A Ti-sapphire Coherent Mira 900 Laser pumped with a 5W Verdi laser (Coherent Inc., Santa Clara, Calif.) was used to excite TMRE at 800 nm A neutral-density filter wheel was used to attenuate the laser intensity so that no detectable photobleaching of TMRE was observed.
To investigate this, primary cultures of astrocytes were prepared from the brains of young (4-6 months) and old (26-28 months) mice and re-plated on glass coverslips prior to each imaging experiment as previously described. Seeded glass coverslips were then sealed in an open chamber (Bioptechs Delta T) and perfused at 37° C. with the potential sensitive dye tetramethyl rhodamine ethyl ester (TMRE, 200 nM, Molecular Probes/Invitrogen) to label astrocyte mitochondria. Mitochondrial membrane potentials (ΔΨs) were measured every 5 minutes using two-photon microscopy. Each image is a maximum intensity projection of a z-stack of six optical sections (1-μm steps). Scale bar is 10 μm. Plated cells were continuously perfused at 37° C. with culture medium containing TMRE (200 nM) and imaged with 2-photon microscopy (800 nm). Oxidative stress was applied to the cells in the perfusate with t-BuOOH (100 μM). Cell viability was then monitored by the collapse of ΔΨ (TMRE fluorescence) to 10% of its initial value. The time course of ΔΨ collapse is plotted for 3 astrocytes (A1, A2, A3) in each culture (FIGS. 1B and 2B). Fluorescent units are scaled to 100% at 0 hours. […]

[2] = neurons initially co-cultured with old astrocytes, astrocytes removed, t-buOOH 100 μM
[3] = neurons without astrocytes, normal B-27, t-buOOH 100 μM 4.5 hours

| SMILES | % neurons alive [1, 2] | % neurons alive [1, 3] | % neurons alive (neuronal survival) (Mouse cortical neurons; anti-oxidant-free B-27, 2-MeSADP 2 μM 10 minutes, t-buOOH 100 μM 3 hours) | % neurons alive (Mouse cortical neurons; co-cultures, 10 min pre-treatment 2-MeSADP 2 μM or UTP 50 μM, 4.5 hours of t-buOOH) | time until ΔΨ collapse (astrocytes; old astrocytes) | mean time until ΔΨ collapse (astrocytes; old astrocytes) | time until ΔΨ collapse (astrocytes; young astrocytes) | mean time until ΔΨ collapse (astrocytes; young astrocytes) | neuronal survival (Mouse cortical neurons; anti-oxidant-free B-27, oligomycin 0.01 μM 30 minutes + 2-MeSADP, t-buOOH 3 hours) | neuronal survival (Mouse cortical neurons; anti-oxidant-free B-27, oligomycin 0.01 μM 30 minutes, t-buOOH 3 hours) | average time until ΔΨ collapse (astrocytes; old astrocytes, ATP 10 μM 10 min prior to t-BuOOH 100 μM) | average time for ΔΨ to collapse (astrocytes; young astrocytes, ATP 10 μM 10 min prior to t-BuOOH 100 μM) | % neurons alive ([1]; neurons without astrocytes, anti-oxidant-free B-27, t-buOOH 100 μM 3 hours) | neuronal survival (Mouse cortical neurons; co-cultured with old astrocytes, ATP 2 μM 10 minutes pre-stimulation, t-buOOH 100 μM 4 hours) | neuronal survival (Mouse cortical neurons; co-cultured with young astrocytes, ATP 2 μM 10 minutes pre-stimulation, t-buOOH 100 μM 4 hours) |
| --- | --- | --- | --- | --- | --- | --- | --- | --- | --- | --- | --- | --- | --- | --- | --- |
| CSc1nc(N)c2ncn([C@@H]3O[C@H](COP(=O)(O)OP(=O)(O)O)[C@@H](O)[C@H]3O)c2n1 [2-MeSADP] | 72±3% | 74±3% | 43±3% | 70±2% |  |  |  |  |  |  |  |  |  |  |  |
| CC[C@H]1/C=C/C=C/C[C@@H](C)[C@H](O)[C@@](C)(O)C(=O)[C@@H](C)[C@H](O)[C@@H](C)C(=O)[C@@H](C)[C@H](O)[C@@H](C)/C=C/C(=O)O[C@@H]2[C@H](C)[C@H](CC1)O[C@]1(CC[C@H](C)[C@H](C[C@@H](C)O)O1)[C@H]2C [oligomycin] |  |  |  |  | 4.16 ± 0.14 h | 3.21±0.08 | 5.15 ± 0.08 h | 4.69±0.23 | 26±3% | 25±3% |  |  |  |  |  |
| Nc1ncnc2c1ncn2[C@@H]1O[C@H](COP(=O)(O)OP(=O)(O)OP(=O)(O)O)[C@@H](O)[C@H]1O [ATP] | 49±6% | 56±7% |  |  |  |  |  |  |  |  | 6.65 ± 0.24 h | 7.35 ± 0.23 h | 18±2% | 87±2% | 87±2% |
